Experiment [1] can be described thus: ex-vivo olfactory evaluation test on incubated sweat. Particulars: for effect on the unpleasant odor: compared to the negative control (incubated sweat alone), concentrations as tested; for comparison of anti-odor activity, compound 1 versus ethyl N-acetyl-L-tryptophanate: equivalent dose, several concentrations (0.1%, 0.5%, 1%). Here is the method: The deodorant activity was evaluated in the ex-vivo olfactory evaluation test, on incubated sweat.
Tryptophan ethyl ester hydrochloride (compound 1 of the example A-1) was evaluated at various concentrations in a pool of fresh sweat.
The samples were prepared in 10-ml headspace screw bottles, they are incubated at 35° C. for 24 h under stirring. A sample of sweat with 1 mg of anhydrous aluminum hydroxychloride (ACH) in 1 ml of sweat (i.e. 0.1%) is incubated in order to serve as a positive reference (little odor) and a sample of sweat alone is incubated to serve as a negative reference (unpleasant odor).
The samples after incubation are evaluated olfactively by a panel of several people in a blind test on the headspace bottles. The incubated samples of sweat containing ACH and sweat alone are evaluated at the same time in order to be used respectively as […].
3 parameters are evaluated on a scale from 0 to 10: • The residual of the unpleasant odor with 0 for not very unpleasant (positive reference) and 10 for very unpleasant odor (negative reference). • The total power of the odor with 0 for little power and 10 for very powerful. • The pleasantness of the odor with 0 for not very pleasant and 10 for very pleasant.

In experiment [2] the test system is Corynebacterium xerosis CIP 5216. The experiment can be described thus: killing test: number of viable micro-organisms after contact. Particulars: 0.5%; for viable micro-organisms, CFU/g of preparation: 35° C., inoculum 1.4E7. In kind it is cell-based. The text has this: The anti-microbial activity of Tryptophan ethyl ester hydrochloride (compound 1) was valuated in vitro on Corynebacterium xerosis (killing test, quantity of micro-organisms killed). Purpose of test: Quantitative determination of the activity of a cosmetic starting material with respect to Corynebacterium xerosis, a micro-organism involved in the phenomena linked to underarm odor. This micro-organism is placed in optimum growth conditions. Protocol: The model strain used is: Corynebacterium xerosis CIP 5216 (bacteria) The strain is placed into contact with the starting material to be tested in a suitable liquid culture medium. The dilutions of the compounds under evaluation are performed in agar at 1:1000, making it possible, for dispersible compounds under evaluation, to do away with the use of a solvent which could introduce bias in the evaluation of the compounds. In parallel, a growth control, in which the starting material to be tested is replaced with diluent, is prepared in the same conditions. The samples are placed in a rotating incubator at 35° C. and maintained under stirring for the entire duration of the test. After 2, 6 and 24 hours of contact, the number of viable micro-organisms remaining in the mixture is evaluated. The results are expressed as a logarithm of the number of micro-organisms per milliliter of mixture.

Setting [3] is: Table 3, 0.5% in incubated sweat, scale 0 to 10, panel of 6.
The mark [4] stands for this setting: incubated sweat, release of odorous volatile molecules.
[5] abbreviates: Table 5, 0.5% in incubated sweat, scale 0 to 10.
Setting [6] is: Table 1, 0.1% in sweat, 35° C. 24 h, scale 0 to 10, panel of 6.
Setting [7] is: Table 1, 0.5% in sweat, scale 0 to 10, panel of 6.
Setting [8] is: Table 1, 1% in sweat, scale 0 to 10, panel of 6.
The mark [9] stands for this setting: Table 2, 0.1% in sweat, scale 0 to 10, panel of 6.
Setting [10] is: Table 2, 0.5% in sweat, scale 0 to 10, panel of 6.
The mark [11] stands for this setting: Table 2, 1% in sweat, scale 0 to 10, panel of 6.
Setting [12] is: Table 4, 0.3% in incubated sweat, scale 0 to 10.
The mark [13] stands for this setting: Table 3, positive reference, 1 mg in 1 ml of sweat (0.1%), scale 0 to 10.
Setting [14] is: Table 4, positive reference, 1 mg in 1 ml of sweat (0.1%), scale 0 to 10.
The mark [15] stands for this setting: Table 5, positive reference, 1 mg in 1 ml of sweat (0.1%), scale 0 to 10.

Regarding `CC/C=C\CCOC(=O)[C@@H](N)Cc1c[nH]c2ccccc12` [Compound 3, Tryptophan cis-3-hexenyl ester], in experiment [1] (setting [3]), the “Pleasantness of the odor” value is listed as 7.8, the Power is 6.8 and the Residual unpleasant odor worked out at 1. Further, the “effect on the unpleasant odor” value in experiment [1] is given as “effect of reducing the unpleasant odor”. For the same compound, the “Pleasantness of the odor” value in experiment [1] (setting [4]) is recorded as “contribute to the pleasantness of the odor”.
As for `CC(C)(C)OC(=O)[C@@H](N)Cc1c[nH]c2ccccc12.Cl` [Compound 8, Tryptophan tertiobutyl ester hydrochloride], in experiment [1] (setting [5]), the “Pleasantness of the odor” value is on record as 5.7, the Power is listed as 4 and the Residual unpleasant odor amounted to 1.7. Also, in experiment [1], the “effect on the unpleasant odor” value is “effect on the reduction of the unpleasant odor”. For the same compound, the “Pleasantness of the odor” value in experiment [1] (setting [4]) was “generate a pleasant odor”.
In the case of `CCOC(=O)[C@@H](N)Cc1c[nH]c2ccccc12.Cl` [Compound 1, L-tryptophan ethyl ester chlorhydride], the “anti-microbial activity on C. xerosis” value in experiment [2] (in terms of the growth control) is listed as “excellent anti-microbial activity”. Also, the “viable micro-organisms, CFU/g of preparation” value in experiment [2] (2 hours of contact) is 4.6E3 CFU/g of preparation; in experiment [2] (6 hours of contact), 4.0E1 CFU/g of preparation; in experiment [2] (24 hours of contact), <20 CFU/g of preparation. Also, the “reduction in terms of the growth control” value in experiment [2] (after 2 h of contact) was 3.3 Log Units; in experiment [2] (after 6 h of contact), 5.4 Log; in experiment [2] (after 24 h of contact), “greater than or equal to 6.6 Log”. Also, the Power in experiment [1] (setting [6]) amounted to 3.2; in experiment [1] (setting [7]), 2.8; in experiment [1] (setting [8]), 1.4; in experiment [1] (setting [9]) it was 3.2; in experiment [1] (setting [10]), 2.8; in experiment [1] (setting [11]), 1.4. The Power in experiment [1] (setting [12]) is listed as 3; in experiment [1] (setting [5]) it was 3.3. For the same compound, the Residual unpleasant odor came out at 3.4 in experiment [1] (setting [6]); 3.2 in experiment [1] (setting [7]); 0.6 in experiment [1] (setting [8]); 3.4 in experiment [1] (setting [9]); 3.2 in experiment [1] (setting [10]); 0.6 in experiment [1] (setting [11]). For the same compound, the Residual unpleasant odor in experiment [1] (setting [12]) stood at 1.7; in experiment [1] (setting [5]) it was 1.3. Besides, the “Pleasantness of the odor” value in experiment [1] (setting [12]) turned out to be 5.3; in experiment [1] (setting [5]) it was 5.7. For the same compound, the “effect on the unpleasant odor” value in experiment [1] is “clear decrease in the unpleasant odor”. Also, the “comparison of anti-odor activity, compound 1 versus ethyl N-acetyl-L-tryptophanate” value in experiment [1] (incubated sweat) is on record as “superiority”; in experiment [1] (incubated sweat, listed as Tryptophan ester hydrochloride) it was “better anti-odor activity than the Ethyl N-acetyl-L-tryptophanate”.
For `CCCCCCCCOC(=O)[C@@H](N)Cc1c[nH]c2ccccc12.Cl` [Compound 6, Tryptophan octyl ester hydrochloride], in experiment [1] (setting [12]), the “Pleasantness of the odor” value came out at 7, the Power amounted to 7 and the Residual unpleasant odor is 0.3. Moreover, in experiment [1] (setting [5]), the “Pleasantness of the odor” value turned out to be 7.7, the Power came to 6.3 and the Residual unpleasant odor worked out at 0.3. Further, in experiment [1], the “effect on the unpleasant odor” value is “effect of reducing the unpleasant odor”. In addition, the “Pleasantness of the odor” value in experiment [1] (setting [4]) was “generates a pleasant odor”.
Regarding `N[C@@H](Cc1c[nH]c2ccccc12)C(=O)OCc1ccccc1` [Compound 7, Tryptophan benzyl ester], in experiment [1] (setting [5]), the “Pleasantness of the odor” value is recorded as 3.7, the Power stood at 4.3 and the Residual unpleasant odor turned out to be 3. The “effect on the unpleasant odor” value in experiment [1] is “effect on the reduction of the unpleasant odor”. Further, in experiment [1] (setting [4]), the “Pleasantness of the odor” value is given as “generate a pleasant odor”.
Turning to `CCOC(=O)[C@H](Cc1c[nH]c2ccccc12)NC(C)=O` [Compound 2, ethyl N-Acetyl-L-tryptophanate, reference compound], the Power in experiment [1] (setting [9]) was determined as 6.2; in experiment [1] (setting [10]), 6.8; in experiment [1] (setting [11]), 6.6. The Residual unpleasant odor is on record as 6.8 in experiment [1] (setting [9]), 7.5 in experiment [1] (setting [10]) and 7 in experiment [1] (setting [11]). Also, the “comparison of anti-odor activity, compound 1 versus ethyl N-acetyl-L-tryptophanate” value in experiment [1] (incubated sweat) is listed as “not as effective as Tryptophan ethyl ester hydrochloride”.
As for “anhydrous aluminum hydroxychloride [ACH, reference compound]”, the Power is on record as 1.6 in experiment [1] (setting [6]); 1.6 in experiment [1] (setting [9]); 0.8 in experiment [1] (setting [13]); 2.7 in experiment [1] (setting [14]); 2 in experiment [1] (setting [15]). Besides, the Residual unpleasant odor in experiment [1] (setting [6]) is recorded as 0.5; in experiment [1] (setting [9]), 0.5; in experiment [1] (setting [13]), 0.3; in experiment [1] (setting [14]), 2.7; in experiment [1] (setting [15]) it was 1.7. Further, the “Pleasantness of the odor” value was determined as 4 in experiment [1] (setting [13]), 3.7 in experiment [1] (setting [14]) and 5 in experiment [1] (setting [15]).
Turning to `CC/C=C\CCOC(=O)[C@@H](N)Cc1c[nH]c2ccccc12.Cl` [Compound 4, Tryptophan cis-3-hexenyl ester hydrochloride], in experiment [1] (setting [3]), the “Pleasantness of the odor” value came to 6, the Power is listed as 7 and the Residual unpleasant odor came out at 2.5. Also, in experiment [1], the “effect on the unpleasant odor” value is listed as “effect of reducing the unpleasant odor”. In addition, the “Pleasantness of the odor” value in experiment [1] (setting [4]) is “contribute to the pleasantness of the odor”.
The like results for `C=CC(C)CCCC(C)(C)OC(=O)[C@@H](N)Cc1c[nH]c2ccccc12` (stereo partly drawn) [Compound 5, Tryptophan dihydromyrcenyl ester] were, in that order, 5.8, 5.5, 2.5, “effect of reducing the unpleasant odor” and “contribute to the pleasantness of the odor”.

(Values after patent publication US11517516B2, “Use of ester derivative of tryptophan as deodorant and/or perfume agent” (L'oreal, priority 2014, dated 2022).)
